Where a name gives a salt, the structure may show the parent alone.
Tests used:
Parental OVCAR-8 cells = assay: Cell proliferation; format: cell-based; conditions: Homo sapiens, OVCAR-8, 96 h, read-out: Parental OVCAR-8 IC50 (µM) ± SD
WT HeLa cells = assay: Cell proliferation; format: cell-based; conditions: Homo sapiens, 96 h, read-out: WT HeLa IC50 (µM) ± SD
[1] = tested on: β-III overexpressing HeLa cells; assay: Cell proliferation; format: cell-based
[2] = tested on: Pgp overexpressing NCI/ADR-RES cells; assay: Cell proliferation; format: cell-based; conditions: Homo sapiens, 96 h, read-out: Pgp overexpressing NCI/ADR-RES IC50 (µM) ± SD
[3] = molecular target: T1, purified bovine brain tubulin (Bos taurus, UniProt P81947+Q6B856); conditions: read-out: tubulin assembly IC50 (µM) ± SD; cited from earlier work
T1 sequence (P81947 whole entry): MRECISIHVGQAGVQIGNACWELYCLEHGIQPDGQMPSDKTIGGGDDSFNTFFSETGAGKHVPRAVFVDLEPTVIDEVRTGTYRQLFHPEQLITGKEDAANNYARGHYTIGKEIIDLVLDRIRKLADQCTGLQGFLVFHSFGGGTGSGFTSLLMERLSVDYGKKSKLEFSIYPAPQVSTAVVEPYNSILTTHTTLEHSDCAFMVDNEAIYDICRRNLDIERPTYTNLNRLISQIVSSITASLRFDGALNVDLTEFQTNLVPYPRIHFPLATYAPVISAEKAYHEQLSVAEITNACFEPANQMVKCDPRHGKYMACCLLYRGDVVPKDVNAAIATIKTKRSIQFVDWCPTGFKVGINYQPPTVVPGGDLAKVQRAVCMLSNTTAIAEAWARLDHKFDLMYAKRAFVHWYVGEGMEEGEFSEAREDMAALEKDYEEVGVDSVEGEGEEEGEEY
T1 sequence (Q6B856 whole entry): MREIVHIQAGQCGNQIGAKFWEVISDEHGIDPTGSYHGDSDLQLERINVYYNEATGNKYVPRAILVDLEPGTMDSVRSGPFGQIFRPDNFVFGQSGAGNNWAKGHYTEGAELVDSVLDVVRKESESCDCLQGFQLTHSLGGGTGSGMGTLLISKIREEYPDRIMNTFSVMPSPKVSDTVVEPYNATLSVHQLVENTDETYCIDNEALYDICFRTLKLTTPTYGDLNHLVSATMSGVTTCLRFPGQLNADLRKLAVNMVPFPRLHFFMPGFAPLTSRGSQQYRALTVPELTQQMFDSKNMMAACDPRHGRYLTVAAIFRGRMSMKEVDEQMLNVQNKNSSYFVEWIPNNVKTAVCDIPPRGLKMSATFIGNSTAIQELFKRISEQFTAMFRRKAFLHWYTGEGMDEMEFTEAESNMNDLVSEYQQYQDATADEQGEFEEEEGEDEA

[4] = tested on: BLBC MDA-MB-435 and U251 glioma xenografts, 4T1 triple negative breast allograft; conditions: cited from earlier work
[5] = molecular target: T1, purified bovine brain tubulin; assay: Tubulin assembly assay; format: biochemical; conditions: ratio of tubulin assembly IC50 vs 5

`COc1ccc2c(c1)CCCN2c1nc(C)nc2c(Cc3ccccc3)c[nH]c12` [5·HCl, 1-(7-benzyl-2-methyl-5H-pyrrolo[3,2-d]pyrimidin-4-yl)-6-methoxy-1,2,3,4-tetrahydroquinoline hydrochloride] gave an IC50 (Parental OVCAR-8 cells) of 0.12 ± 0.004 µM.

With `COc1ccc(/C=C\c2cc(OC)c(OC)c(OC)c2)cc1O` [CA, combretastatin A-4] the IC50 (WT HeLa cells) was 0.0018 ± 0.0004 µM.

`CC(=O)O[C@H]1C(=O)[C@@]2(C)[C@H]([C@H](OC(=O)c3ccccc3)[C@]3(O)C[C@H](OC(=O)[C@H](O)[C@@H](NC(=O)c4ccccc4)c4ccccc4)C(C)=C1C3(C)C)[C@]1(OC(C)=O)CO[C@@H]1C[C@@H]2O` [Paclitaxel, paclitaxel] showed an IC50 ([1]; Homo sapiens, HeLa, 96 h, read-out: β-III overexpressing HeLa IC50 (µM) ± SD) of 0.016 ± 0.001 µM, an IC50 (Parental OVCAR-8 cells) of 0.005 ± 0.001 µM and an IC50 [2] of 2.5 µM.

In the case of `COc1ccc(N(C)c2nc(C)nc3c(Cc4ccccc4)c[nH]c23)cc1` [Compound 3], the IC50 [3] is listed as 21 ± 1 µM, the toxicity to animals [4] is listed as “without overt toxicity” and the “tumor size and vascularity” value ([4]; two flank xenograft models and 4T1 orthotopic allograft) is listed as “reduced tumor size and vascularity”.

In the case of `COc1ccc(N(C)c2nc(C)nc3c(Cc4ccccc4)cn(C)c23)cc1.Cl` [7·HCl, 7-benzyl-N-(4-methoxyphenyl)-N,2,5-trimethyl-5H-pyrrolo[3,2-d]pyrimidin-4-amine hydrochloride], the “fold more potent than 5 in tubulin assembly” value [5] is reported as roughly 7 fold and the “fold less potent in βIII-tubulin overexpressing HeLa than in wild type HeLa” value ([1]; isogenic HeLa cell line pair) is reported as “equal potency”.

— PMC5191990 (Bioorganic & medicinal chemistry, 2016)
